The target in the experiment is HilD (Salmonella enterica, UniProt P0CL08). In words: microscale thermophoresis with dye-labeled purified HilD; supported by thermal shift, DARTS and EMSA. It counts as binding. (In MST a laser heats a spot of the sample, and binding alters the fluorescence response.)

Data on 1 molecule can be found in PMC7546796, “Myricanol Inhibits the Type III Secretion System of Salmonella enterica Serovar Typhimurium by Interfering With the DNA-Binding Activity of HilD” (Frontiers in Microbiology, 2020).

As usually defined, the Kd is a measure of binding affinity in units of concentration.

Chain of HilD (P0CL08 whole entry): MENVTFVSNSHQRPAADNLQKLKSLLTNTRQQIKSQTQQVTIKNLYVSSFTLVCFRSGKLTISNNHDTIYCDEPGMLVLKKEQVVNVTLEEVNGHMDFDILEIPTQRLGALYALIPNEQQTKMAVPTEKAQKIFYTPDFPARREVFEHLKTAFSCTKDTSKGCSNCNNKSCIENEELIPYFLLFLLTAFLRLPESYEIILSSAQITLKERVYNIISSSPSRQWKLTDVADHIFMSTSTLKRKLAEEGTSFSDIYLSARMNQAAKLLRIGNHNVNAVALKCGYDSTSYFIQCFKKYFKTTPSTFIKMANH

In the case of `COc1c2cc(c(O)c1OC)CCCC[C@@H](O)CCc1ccc(O)c-2c1` [compound 1, myricanol], the Kd turned out to be 1380 ± 530 nM.
